Test results from PubChem BioAssay AID330 (DTP/NCI, 2004).
“And” between values parts separate entries of the source, which are not always exact repeats. Identical values can stand only once. Toxic doses and inconclusive results are not listed. The calls were made as follows: active = survival T/C of 150% or more; inactive = T/C below 125% in these data.

Test system: P388 leukemia ip, CD2F1 mice, survival T/C
Assay: NCI In Vivo Anticancer Drug Screen. Data for tumor model P388 Leukemia (intraperitoneal) in CD2F1 (CDF1) mice
Details: endpoint: median survival time, higher = longer survival
Method in brief: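 Mice carrying the transplanted tumor received test compound or vehicle. Survival was recorded in each group, and the value is the treated-group measurement divided by that of the vehicle-treated control group.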

[1] = dose: 25.0 mg/kg/injection, schedule: Q01DX009 (ip), vehicle: saline with Tween-80
[2] = dose: 50.0 mg/kg/injection, schedule: Q01DX009 (ip), vehicle: saline with Tween-80
[3] = dose: 100.0 mg/kg/injection, schedule: Q01DX009 (ip), vehicle: saline with Tween-80
[4] = dose: 100.0 mg/kg/injection, schedule: Q01DX009 (ip), vehicle: Klucel (hydroxypropylcellulose) (HPC)
[5] = dose: 200.0 mg/kg/injection, schedule: Q01DX009 (ip), vehicle: Klucel (hydroxypropylcellulose) (HPC)
[6] = dose: 50.0 mg/kg/injection, schedule: Q01DX009 (ip), vehicle: saline
[7] = dose: 100.0 mg/kg/injection, schedule: Q01DX009 (ip), vehicle: saline
[8] = dose: 200.0 mg/kg/injection, schedule: Q01DX009 (ip), vehicle: saline
[9] = dose: 200.0 mg/kg/injection, schedule: Q01DX009 (ip), vehicle: saline with Tween-80
[10] = dose: 50.0 mg/kg/injection, schedule: Q01DX005 (ip), vehicle: saline with Tween-80
[11] = dose: 100.0 mg/kg/injection, schedule: Q01DX005 (ip), vehicle: saline with Tween-80

Measured: T/C

CC1=CC(O)(c2ccccn2)P(=O)(c2ccccc2)C=C1C (configuration not stated)
inactive: dose: 60.0 mg/kg/injection, schedule: Q01DX005 (ip), vehicle: Klucel (hydroxypropylcellulose) (HPC) 115 % of control | dose: 120.0 mg/kg/injection, schedule: Q01DX005 (ip), vehicle: Klucel (hydroxypropylcellulose) (HPC) 111 % of control | dose: 240.0 mg/kg/injection, schedule: Q01DX005 (ip), vehicle: Klucel (hydroxypropylcellulose) (HPC) 99 % of control

COC(=O)C12OCC34C(CC5C(C)=C(O)C(=O)CC5(C)C3C(O)C1O)OC(=O)C(OC(=O)C=C(C)C)C24 (configuration not stated)
inactive: dose: 0.13 mg/kg/injection, schedule: Q01DX009 (ip), vehicle: saline 100 % of control | dose: 0.25 mg/kg/injection, schedule: Q01DX009 (ip), vehicle: saline 100 % of control | dose: 0.5 mg/kg/injection, schedule: Q01DX009 (ip), vehicle: saline 96 % of control | dose: 2.0 mg/kg/injection, schedule: Q01DX009 (ip), vehicle: saline 98 % of control | dose: 4.0 mg/kg/injection, schedule: Q01DX009 (ip), vehicle: saline 100 % of control | dose: 125.0 micrograms/kg/injection, schedule: Q01DX009 (ip), vehicle: saline + alcohol 104 % of control | dose: 250.0 micrograms/kg/injection, schedule: Q01DX009 (ip), vehicle: saline + alcohol 102 % of control | dose: 500.0 micrograms/kg/injection, schedule: Q01DX009 (ip), vehicle: saline + alcohol 104 % of control | dose: 1000.0 micrograms/kg/injection, schedule: Q01DX009 (ip), vehicle: saline + alcohol 95 % of control | dose: 2000.0 micrograms/kg/injection, schedule: Q01DX009 (ip), vehicle: saline + alcohol 93 % of control | dose: 4000.0 micrograms/kg/injection, schedule: Q01DX009 (ip), vehicle: saline + alcohol 102 % of control

O=c1[nH]cncc1CCC1OCCO1
inactive: dose: 60.0 mg/kg/injection, schedule: Q01DX005 (ip), vehicle: saline 97 % of control | dose: 120.0 mg/kg/injection, schedule: Q01DX005 (ip), vehicle: saline 98 % of control | dose: 240.0 mg/kg/injection, schedule: Q01DX005 (ip), vehicle: saline 103 % of control

Cc1c(C)c2ccc(OCCCN3CCN(Cc4ccc(Cl)cc4)CC3)cc2oc1=O
inactive: dose: 50.0 mg/kg/injection, schedule: Q01DX009 (ip), vehicle: suspension in saline 88 % of control | dose: 100.0 mg/kg/injection, schedule: Q01DX009 (ip), vehicle: suspension in saline 91 % of control

[Cl-].[Cl-].[Co+3].[NH-]CC[NH-].[NH-]CC[NH-].[O-][Cl+3]([O-])([O-])O
inactive: [1] 102 % of control | [2] 105 % of control and 117 % of control | [3] 111 % of control and 123 % of control

CCOC(=O)Nc1nc2ccc([N+](=O)[O-])cc2s1
inactive: dose: 6.25 mg/kg/injection, schedule: Q01DX009 (ip), vehicle: Klucel (hydroxypropylcellulose) (HPC) 104 % of control | dose: 12.5 mg/kg/injection, schedule: Q01DX009 (ip), vehicle: Klucel (hydroxypropylcellulose) (HPC) 107 % of control | dose: 25.0 mg/kg/injection, schedule: Q01DX009 (ip), vehicle: Klucel (hydroxypropylcellulose) (HPC) 105 % of control

CSc1ncc(CO)c(N)n1
inactive: dose: 100.0 mg/kg/injection, schedule: Q04DX003 (ip), vehicle: Klucel (hydroxypropylcellulose) (HPC) 90 % of control | dose: 200.0 mg/kg/injection, schedule: Q04DX003 (ip), vehicle: Klucel (hydroxypropylcellulose) (HPC) 95 % of control | dose: 400.0 mg/kg/injection, schedule: Q04DX003 (ip), vehicle: Klucel (hydroxypropylcellulose) (HPC) 95 % of control

Cc1ccc(/C=N/S(=O)(=O)Cc2ccccc2)cc1
inactive: dose: 50.0 mg/kg/injection, schedule: Q01DX009 (ip), vehicle: Klucel (hydroxypropylcellulose) (HPC) 99 % of control | [4] 100 % of control | [5] 100 % of control

C=CC(=O)NC(C)(C)C(=O)O
inactive: [6] 99 % of control | [7] 97 % of control | [8] 99 % of control

O=S(=O)(Nc1nccs1)c1ccc(NCc2c3ccccc3nc3ccccc23)cc1
inactive: dose: 100.0 mg/kg/injection, schedule: Q04DX002 (ip), vehicle: Klucel (hydroxypropylcellulose) (HPC) 101 % of control | dose: 200.0 mg/kg/injection, schedule: Q04DX002 (ip), vehicle: Klucel (hydroxypropylcellulose) (HPC) 100 % of control | dose: 400.0 mg/kg/injection, schedule: Q04DX002 (ip), vehicle: Klucel (hydroxypropylcellulose) (HPC) 105 % of control

C[N+]1(C)N=C([O-])N(c2ccc(Cl)cc2)C1=O
inactive: dose: 100.0 mg/kg/injection, schedule: Q04DX002 (ip), vehicle: saline 100 % of control | dose: 200.0 mg/kg/injection, schedule: Q04DX002 (ip), vehicle: saline 103 % of control | dose: 400.0 mg/kg/injection, schedule: Q04DX002 (ip), vehicle: saline 102 % of control

CN(C)C(=O)NCCCCCCNC(=O)N(C)C
inactive: [6] 105 % of control | [7] 100 % of control | [8] 110 % of control

CC[n+]1c(/C=C/c2ccc(N(CCC(=O)O)CCC(=O)O)cc2)sc2ccccc21
inactive: dose: 12.5 mg/kg/injection, schedule: Q04DX003 (ip), vehicle: saline with Tween-80 99 % of control | dose: 25.0 mg/kg/injection, schedule: Q04DX003 (ip), vehicle: saline with Tween-80 100 % of control | dose: 50.0 mg/kg/injection, schedule: Q04DX003 (ip), vehicle: saline with Tween-80 101 % of control

CCC(c1ccccc1)C(C#N)c1ccccc1 (configuration not stated)
inactive: [1] 95 % of control | [2] 95 % of control | [3] 94 % of control | [9] 90 % of control

O=C1c2cccc3c([N+](=O)[O-])ccc(c23)C(=O)N1NCCO
inactive: dose: 12.5 mg/kg/injection, schedule: Q01DX005 (ip), vehicle: saline with Tween-80 108 % of control | dose: 25.0 mg/kg/injection, schedule: Q01DX005 (ip), vehicle: saline with Tween-80 116 % of control | [10] 111 % of control and 116 % of control | [11] 114 % of control

C=C(CCCCOCOCCOC)c1ccccc1
inactive: dose: 50.0 mg/kg/injection, schedule: Q01DX005 (ip), vehicle: saline 106 % of control | dose: 100.0 mg/kg/injection, schedule: Q01DX005 (ip), vehicle: saline 107 % of control | dose: 200.0 mg/kg/injection, schedule: Q01DX005 (ip), vehicle: saline 99 % of control

C=CC(=O)NC(C)C(=O)O (configuration not stated)
inactive: [6] 100 % of control | [7] 99 % of control | [8] 107 % of control

CCSC(C(OC(C)=O)C(OC(C)=O)C(COC(C)=O)OC(C)=O)n1cc(F)c(=O)[nH]c1=O (configuration not stated)
inactive: dose: 25.0 mg/kg/injection, schedule: Q01DX005 (ip), vehicle: other 97 % of control | dose: 50.0 mg/kg/injection, schedule: Q01DX005 (ip), vehicle: other 110 % of control | dose: 100.0 mg/kg/injection, schedule: Q01DX005 (ip), vehicle: other 105 % of control | dose: 200.0 mg/kg/injection, schedule: Q01DX005 (ip), vehicle: other 107 % of control | dose: 400.0 mg/kg/injection, schedule: Q01DX005 (ip), vehicle: other 100 % of control | dose: 400.0 mg/kg/injection, schedule: Q01DX009 (ip), vehicle: other 92 % of control

C=C(C)CC1C(=O)OC(=O)C1(CC(=C)C)CC(=C)C (configuration not stated)
inactive: [6] 100 % of control | [7] 99 % of control | [8] 93 % of control

Cc1ccoc1
inactive: dose: 7.5 mg/kg/injection, schedule: Q01DX005 (ip), vehicle: saline with Tween-80 105 % of control | dose: 15.0 mg/kg/injection, schedule: Q01DX005 (ip), vehicle: saline with Tween-80 100 % of control | dose: 30.0 mg/kg/injection, schedule: Q01DX005 (ip), vehicle: saline with Tween-80 97 % of control | dose: 60.0 mg/kg/injection, schedule: Q01DX005 (ip), vehicle: saline with Tween-80 98 % of control | dose: 120.0 mg/kg/injection, schedule: Q01DX005 (ip), vehicle: saline with Tween-80 101 % of control | dose: 240.0 mg/kg/injection, schedule: Q01DX005 (ip), vehicle: saline with Tween-80 106 % of control

Cc1c(S)cnc2ccccc12
inactive: [10] 99 % of control | [11] 93 % of control

COc1ccc(C(=O)c2cccnc2C(=O)O)cc1
inactive: [2] 105 % of control | [3] 107 % of control | [9] 107 % of control

O=C(Nc1ccc(Cl)cc1)OC1CCS(=O)(=O)C1 (configuration not stated)
inactive: [4] 100 % of control | [5] 89 % of control
